18 compounds from patent US20230077362A1 (CORTEVA AGRISCIENCE LLC, priority 2019, published 2023) can be followed below.

Type in all cases: in vivo
The subject of data set [1] is Green Peach Aphid ("GPA") (Myzus persicae), wingless adult and nymph stages. Nature of the data set: Bioassay on green peach aphid (GPA), foliar spray on infested cabbage seedlings. The following applies: for pest or weed control at 200 µg/mL: Myzus persicae, foliar, 72 h. As to the method:
Certain molecules disclosed in this document were tested against GPA using procedures described in the following example. In the reporting of the results, the “GPA Rating Table” was used (See Table Section).
Cabbage seedlings grown in 3-inch pots, with 2-3 small (3-5 cm) true leaves, were used as test substrate. The seedlings were infested with 20-50 GPA (wingless adult and nymph stages) one day prior to chemical application. Four pots with individual seedlings were used for each treatment. Test compounds (2 mg) were dissolved in 2 mL of acetone/methanol (1:1) solvent, forming stock solutions of 1000 ppm test compound. […] A hand-held aspirator-type sprayer was used for spraying a solution to both sides of […] leaves until runoff. Reference plants (solvent check) were sprayed with the diluent only containing 20% by volume of acetone/methanol (1:1) solvent. Treated plants were held in a holding room for three days at approximately 25° C. and ambient relative humidity (RH) prior to grading. Evaluation was conducted by counting the number of live aphids per plant under a microscope.
Corrected % Control=100*(X−Y)/X • where • X=No. of live aphids on solvent check plants and • Y=No. of live aphids on treated plants
The results are indicated in the table entitled “Table ABC: Biological Results” (See Table Section).

The subject of data set [2] is Cabbage Looper (Trichoplusia ni) ("CL"), second instar larvae. Nature of the data set: Bioassay on cabbage looper (CL), 128-well diet tray assay. The conditions noted are these: for pest or weed control at 50 µg/cm2: Trichoplusia ni. An outline of the steps: (§1)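 Mortality (%) is scored well by well after five to seven days at 25° C. on a 14:10 light:dark regime. The value given is the mean of eight wells.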

For data set [3], the system named is Beet Armyworm (Spodoptera exigua) ("BAW"), second instar larvae. The data set can be described thus: Bioassay on beet armyworm (BAW), 128-well diet tray assay. The following applies: for pest or weed control at 50 µg/cm2: Spodoptera exigua. An outline of the steps: as §1
Where [4] appears, read: read-out: GPA (Biological Results, rating).
The mark [5] stands for this setting: read-out: CL (Biological Results, rating).
[6] abbreviates: read-out: BAW (Biological Results, rating).

Like-named read-outs stand apart in the source and are kept apart here.

On to `Cc1ccc(OCCCC(F)(F)F)c(N2C(=O)CS/C2=N\C(=O)Nc2ccc(-c3ncn(-c4ccc(SC(F)(F)F)cc4)n3)cc2F)c1` [Compound J225, (Z)-1-(2-Fluoro-4-(1-(4-((trifluoromethyl)thio)phenyl)-1H-1,2,4-triazol-3-yl)phenyl)-3-(3-(5-methyl-2-(4,4,4-trifluorobutoxy)phenyl)-4-oxothiazolidin-2-ylidene)urea], for which the pest or weed control at 200 µg/mL in data set [1] (setting [4]) fell in the range of 0 to 80%. For the same compound, the pest or weed control at 50 µg/cm2 in data set [2] (setting [5]) and in data set [3] (setting [6]) was 50 to 100% each time.

As to `N#Cc1ccc(OCCC(F)(F)F)c(N2C(=O)CS/C2=N\C(=O)Nc2ccc(-c3ncn(-c4ccc(OC(F)(F)F)cc4)n3)cc2F)c1` [Compound J103, (Z)-1-(3-(5-Cyano-2-(3,3,3-trifluoropropoxy)phenyl)-4-oxothiazolidin-2-ylidene)-3-(2-fluoro-4-(1-(4-(trifluoromethoxy)phenyl)-1H-1,2,4-triazol-3-yl)phenyl)urea], the pest or weed control at 200 µg/mL in data set [1] (setting [4]) was 0 to 80%. Also, the pest or weed control at 50 µg/cm2 in data set [2] (setting [5]) and in data set [3] (setting [6]) was 50 to 100% throughout.

Consider `Cc1ccc(C(C)C)c(N2C(=O)C(Cl)S/C2=N\C(=O)Nc2ccc(-c3ncn(-c4ccc(OC(F)(F)F)cc4)n3)cc2F)c1` (stereo not drawn) [Compound J32, (Z)-1-(5-chloro-3-(2-isopropyl-5-methylphenyl)-4-oxothiazolidin-2-ylidene)-3-(2-fluoro-4-(1-(4-(trifluoromethoxy)phenyl)-1H-1,2,4-triazol-3-yl)phenyl)urea], for which the pest or weed control at 200 µg/mL in data set [1] (setting [4]) was in the range of 0 to 80%. Moreover, the pest or weed control at 50 µg/cm2 in data set [2] (setting [5]) and in data set [3] (setting [6]) was 50 to 100% in each case.

In the case of `CCc1cc(-c2ncn(-c3ccc(OC(F)(F)F)cc3)n2)ccc1NC(=O)/N=C1\SCC(=O)N1c1cc(C)ccc1OCC(F)(F)F` [Compound J75, (Z)-1-(2-Ethyl-4-(1-(4-(trifluoromethoxy)phenyl)-1H-1,2,4-triazol-3-yl)phenyl)-3-(3-(5-methyl-2-(2,2,2-trifluoroethoxy)phenyl)-4-oxothiazolidin-2-ylidene)urea], the pest or weed control at 200 µg/mL in data set [1] (setting [4]) was 0 to 80%. Besides, the pest or weed control at 50 µg/cm2 in data set [2] (setting [5]) and in data set [3] (setting [6]) was 50 to 100% in each case.

For `Cc1ccc(OCCC(F)(F)F)c(N2C(=O)CS/C2=N\C(=O)Nc2ccc(-c3ncn(-c4ccc(C(F)(F)F)cc4)n3)cc2)c1` [Compound J315, (Z)-1-(3-(5-Methyl-2-(3,3,3-trifluoropropoxy)phenyl)-4-oxothiazolidin-2-ylidene)-3-(4-(1-(4-(trifluoromethyl)phenyl)-1H-1,2,4-triazol-3-yl)phenyl)urea], in data set [1] (setting [4]), the pest or weed control at 200 µg/mL lay in the range of 0 to 80%. In addition, the pest or weed control at 50 µg/cm2 in data set [2] (setting [5]) and in data set [3] (setting [6]) was 50 to 100% in each case.

For `Cc1ccc(COCC(F)(F)F)c(N2C(=O)CS/C2=N\C(=O)Nc2ccc(-c3ncn(-c4ccc(S(=O)(=O)C(F)(F)F)cc4)n3)cc2F)c1` [Compound J363, (Z)-1-(2-Fluoro-4-(1-(4-((trifluoromethyl)sulfonyl)phenyl)-1H-1,2,4-triazol-3-yl)phenyl)-3-(3-(5-methyl-2-((2,2,2-trifluoroethoxy)methyl)phenyl)-4-oxothiazolidin-2-ylidene)urea], in data set [1] (read-out: GPA rating), the pest or weed control at 200 µg/mL was 0 to 80%. The pest or weed control at 50 µg/cm2 in data set [2] (read-out: CL rating) and in data set [3] (read-out: BAW rating) was 50 to 100% in each case.

Turning to `COC(C)c1ccccc1N1C(=O)CS/C1=N\C(=O)Nc1ccc(-c2ncn(-c3ccc(OC(F)(F)F)cc3)n2)cc1F` (stereo not drawn) [Compound J87, (Z)-1-(2-Fluoro-4-(1-(4-(trifluoromethoxy)phenyl)-1H-1,2,4-triazol-3-yl)phenyl)-3-(3-(2-(1-methoxyethyl)phenyl)-4-oxothiazolidin-2-ylidene)urea], the pest or weed control at 200 µg/mL in data set [1] (setting [4]) fell in the range of 0 to 80%. Moreover, the pest or weed control at 50 µg/cm2 in data set [2] (setting [5]) and in data set [3] (setting [6]) was 50 to 100% throughout.

On to `COc1ccc(C(C)C)c(N2C(=O)CS/C2=N\C(=O)Nc2ccc(-c3ncn(-c4cccc(C(F)(F)F)c4)n3)cc2C)c1` [Compound J132, (Z)-1-(3-(2-Isopropyl-5-methoxyphenyl)-4-oxothiazolidin-2-ylidene)-3-(2-methyl-4-(1-(3-(trifluoromethyl)phenyl)-1H-1,2,4-triazol-3-yl)phenyl)urea], for which the pest or weed control at 200 µg/mL in data set [1] (setting [4]) was in the range of 0 to 80%. The pest or weed control at 50 µg/cm2 in data set [2] (setting [5]) and in data set [3] (setting [6]) was 50 to 100% throughout.

Take `CCOCc1ccc(C)cc1N1C(=O)CS/C1=N\C(=O)Nc1ccc(-c2ncn(-c3ccc(OC(F)(F)F)cc3)n2)cc1F` [Compound J180, (Z)-1-(3-(2-(Ethoxymethyl)-5-methylphenyl)-4-oxothiazolidin-2-ylidene)-3-(2-fluoro-4-(1-(4-(trifluoromethoxy)phenyl)-1H-1,2,4-triazol-3-yl)phenyl)urea]: in data set [1] (setting [4]), the pest or weed control at 200 µg/mL was in the range of 0 to 80%. The pest or weed control at 50 µg/cm2 in data set [2] (setting [5]) and in data set [3] (setting [6]) was 50 to 100% each time.

Turning to `Cc1cc(-c2ncn(-c3cccc(C(F)(F)F)c3)n2)ccc1NC(=O)/N=C1\SCC(=O)N1c1cc(N(C)C)ccc1C(C)C` [Compound J133, (Z)-1-(3-(5-(Dimethylamino)-2-isopropylphenyl)-4-oxothiazolidin-2-ylidene)-3-(2-methyl-4-(1-(3-(trifluoromethyl)phenyl)-1H-1,2,4-triazol-3-yl)phenyl)urea], the pest or weed control at 200 µg/mL in data set [1] (setting [4]) was 0 to 80%. Also, the pest or weed control at 50 µg/cm2 in data set [2] (setting [5]) and in data set [3] (setting [6]) was 50 to 100% throughout.

Take `CC(C)c1ccc(C#N)cc1N1C(=O)CS/C1=N\C(=O)Nc1ccc(-c2ncn(-c3ccc(OC(F)(F)F)cc3)n2)cc1F` [Compound J76, (Z)-1-(3-(5-Cyano-2-isopropylphenyl)-4-oxothiazolidin-2-ylidene)-3-(2-fluoro-4-(1-(4-(trifluoromethoxy)phenyl)-1H-1,2,4-triazol-3-yl)phenyl)urea]: the pest or weed control at 200 µg/mL in data set [1] (setting [4]) lay in the range of 0 to 80%.

For `Cc1ccc(-c2ccccc2)c(N2C(=O)CS/C2=N\C(=O)Nc2ccc(-c3ncn(-c4ccc(OC(F)(F)F)cc4)n3)cc2F)c1` [Compound J785, (Z)-1-(2-Fluoro-4-(1-(4-(trifluoromethoxy)phenyl)-1H-1,2,4-triazol-3-yl)phenyl)-3-(3-(4-methyl-[1,1′-biphenyl]-2-yl)-4-oxothiazolidin-2-ylidene)urea], the “GPA rating (% control or mortality class)” value in data set [1] (Table ABC, species GPA, foliar spray on infested cabbage seedlings) is listed as “D (No activity noticed in this bioassay)”.

With `CCOc1ccc(C(C)C)c(N2C(=O)CS/C2=N\C(=O)Nc2ccc(-c3ncn(-c4ccc(OC(F)(F)F)cc4)n3)cc2F)c1` [Compound J191, (Z)-1-(3-(5-Ethoxy-2-isopropylphenyl)-4-oxothiazolidin-2-ylidene)-3-(2-fluoro-4-(1-(4-(trifluoromethoxy)phenyl)-1H-1,2,4-triazol-3-yl)phenyl)urea], the pest or weed control at 200 µg/mL in data set [1] (setting [4]) fell in the range of 0 to 80%.

For `CCCc1ccc(C)cc1N1C(=O)CS/C1=N\C(=O)Nc1ccc(-c2ncn(-c3ccc(OC(F)(F)F)cc3)n2)cc1F` [Compound J41, (Z)-1-(2-Fluoro-4-(1-(4-(trifluoromethoxy)phenyl)-1H-1,2,4-triazol-3-yl)phenyl)-3-(3-(5-methyl-2-propylphenyl)-4-oxothiazolidin-2-ylidene)urea], the pest or weed control at 200 µg/mL in data set [1] (setting [4]) lay within 0 to 80%.

With `Cc1ccc(OCCC(F)(F)F)c(N2C(=O)CS/C2=N\C(=O)Nc2ccc(-n3cnc(-c4ccc(OC(F)(F)F)cc4)n3)cc2F)c1` [Compound J693, (Z)-1-(2-Fluoro-4-(3-(4-(trifluoromethoxy)phenyl)-1H-1,2,4-triazol-1-yl)phenyl)-3-(3-(5-methyl-2-(3,3,3-trifluoropropoxy)phenyl)-4-oxothiazolidin-2-ylidene)urea], the pest or weed control at 50 µg/cm2 in data set [2] (read-out: CL rating) and in data set [3] (read-out: BAW rating) was 50 to 100% throughout.

For the compound `Cc1ccc(COCC(Cl)Cl)c(N2C(=O)CS/C2=N\C(=O)Nc2ccc(-c3ncn(-c4ccc(S(F)(F)(F)(F)F)cc4)n3)cc2F)c1` [Compound J554], the CL rating result in data set [2] (Table ABC, species CL, C = not tested, D = no activity noticed) is “A (50-100)”. For the same compound, the BAW rating result in data set [3] (Table ABC, species BAW, C = not tested, D = no activity noticed) is recorded as “A (50-100)”.

As for `CN(C)c1cccc(N2C(=O)CS/C2=N\C(=O)Nc2ccc(-c3ncn(-c4ccc(OC(F)(F)F)cc4)n3)cc2F)c1` [Compound J84, (Z)-1-(3-(3-(Dimethylamino)phenyl)-4-oxothiazolidin-2-ylidene)-3-(2-fluoro-4-(1-(4-(trifluoromethoxy)phenyl)-1H-1,2,4-triazol-3-yl)phenyl)urea], the pest or weed control at 50 µg/cm2 in data set [2] (setting [5]) and in data set [3] (setting [6]) was 50 to 100% each time.

For the compound `CCc1cc(-c2ncn(-c3ccc(OC(F)(F)F)cc3)n2)ccc1NC(=O)/N=C1\SCC(=O)N1c1cc(N(CC)CC)ccc1C(C)C` [Compound J160, (Z)-1-(3-(5-(Diethylamino)-2-isopropylphenyl)-4-oxothiazolidin-2-ylidene)-3-(2-ethyl-4-(1-(4-(trifluoromethoxy)phenyl)-1H-1,2,4-triazol-3-yl)phenyl)urea], the pest or weed control at 50 µg/cm2 in data set [2] (setting [5]) and in data set [3] (setting [6]) was 50 to 100% each time.
